Source: patent publication US20050132448A1, “Assay for beta cell toxic macrolides” (priority 2001, published 2005)
Entries after “also recorded” stand apart in the source; their conditions may differ.

Legend:
[1] = test system: Balb/c mice; experiment: Oral glucose tolerance test (OGTT); assay type: in vivo
Description: Male Balb/c mice were provided by the Monash University Central Animal House and Breeding Facility. The Monash University Department of Biochemistry Animal Ethics Committee approved all animal experimentation. Bafilomycin A1 (Sigma) was dissolved in 70% ethanol then diluted 1 in 10 with sterile phosphate buffered saline (PBS) to give a working stock of 4.8 μg/ml. Groups of between 3 and 9 mice as indicated were administered 12 μg per kilogram (body weight) bafilomycin A1 by intraperitoneal injection, which should achieve a final concentration in the blood of 275 nM bafilomycin A1 assuming a blood volume of 70 ml per kg for mice. […] Control mice received the ethanol/PBS carrier solution that lacked the inhibitor.
Groups of 6 control and 6 treated mice were fasted for 6-7 hours then anaesthetised by intraperitoneal injection of 35 mg/kg body weight of pentobarbitone (Nembutal) in order to minimise stress-induced variations in blood glucose. D-glucose (2 mg/g body weight) was delivered into the stomach by gavage as a 200 mg/ml solution. Blood glucose concentrations were determined for the fasted mice and at 15, 30, 60 and 120 minutes after glucose challenge as follows. Whole blood (approximately 60 μl) was collected from the tail vein and glucose concentrations were immediately determined by the glucose oxidase method using a YSI glucose analyser.

[2] = test system: Balb/c mice; experiment: Intra-islet insulin by indirect immunofluorescence on pancreas sections; assay type: in vivo
Description: FIG. 2 is a graphical representation of vacuolar ATPase inhibition causing increased islet insulin content of secretory granules in islet β cells. Infra-islet insulin was detected in paraffin embedded sections by indirect immunofluorescence using an anti-pig insulin antibody. Digitised images collected on an epifluorescent microscope were analysed for staining density using MCID image analysis software to provide a semi-quantitative measure of the amount of bound anti-insulin antibody. At least 9 islets were measured for each of 5 control mice and 6 bafilomycin A1-treated mice, and individual values for each islet from all mice in each group were combined for analysis. A measurement was made in each islet, and the background measured in exocrine tissue adjacent to the same islet was subtracted. Units are arbitrary fluorescence units and the data are expressed as the mean and standard deviation.
The pancreas, liver, kidney and brain were dissected from anaesthetised mice and immediately fixed in formalin. […] Endogenous peroxidase activity was inactivated using 0.5% hydrogen peroxide in methanol prior to the antibody incubations and bound HRP conjugated antibody was detected using Sigma FAST-DAB peroxidase tablets. FITC was detected using an Olympus epifluorescence microsocope and images were captured and analysed using a digital camera and MCID software. […]

[3] = test system: Balb/c mice; experiment: Long-term effects on random blood glucose, weight and islet morphology/size; assay type: in vivo
Description: FIG. 6 is a graphical representation of islet size following administration of bafilomycin A1. Reduced islet size is a long-term consequence of vacuolar ATPase inhibition. Pancreas morphology was examined at either 1, 7, 26 or 90 days after administration of bafilomycin A1. Islet size was determined by measuring the areas of the pancreas sections positive for staining with insulin antibody using MCID software. • Controls—223 islets from 12 mice • 1 day—81 islets from 3 mice • 7 days—125 islets from 3 mice • 26 days—90 islets from 4 mice • 90 days—81 islets from 4 mice • The black square represents the median, the dotted boxes 25-75th percentiles, bars the 10-90th percentiles, and outliers by dots.
The pancreas, liver, kidney and brain were dissected from anaesthetised mice and immediately fixed in formalin. Paraffin embedded sections (4 μm) were either stained with haemotoxylin and eosin or prepared for immunohistochemistry or indirect immunofluorescence. Immunostaining was performed on de-paraffinised sections as follows. The section was blocked in PBS containing 1% skim milk powder for 1 hour. Anti-insulin antiserum raised in Guinea pig (Dako) was diluted 1 in 50 in PBS 1% skim milk powder and left at room temperature for 60 minutes. Sections were washed in PBS and incubated with 1:200 dilution of horse radish peroxidase conjugated anti-guinea pig antiserum (Sigma) or a 1:400 dilution of FITC-conjugated anti-guinea pig serum (Sigma) for 1 hour. Endogenous peroxidase activity was inactivated using 0.5% hydrogen peroxide in methanol prior to the antibody incubations and bound HRP conjugated antibody was detected using Sigma FAST-DAB peroxidase tablets. FITC was detected using an Olympus epifluorescence microsocope and images were captured and analysed using a digital camera and MCID software.
The long-term effects of bafilomycin A1 on blood glucose concentrations and islet morphology were investigated in 4 mice treated twice with a weekly interval. Random blood glucose levels (RBG) and weight were determined, weekly over 90 days and results were compared to a control group of 3 mice treated with carrier solution.

[4] = test system: C57B1/6J mice; experiment: Size and number of pancreatic islets after vATPase inhibitors; assay type: in vivo
Description: The effect of vATPase inhibitors on the size and number of pancreatic islets was analysed in C57B1/6J using either bafilomycin A1 (BA1) or concanamycin A (CMA). The effect of Streptozotocin, an islet beta-cell specific toxin produced by Streptomyces achromogenes was also examined, to enable comparison with the effect of vATPase inhibitors.
Groups of 4 female C57B1/6J mice were injected with 5 doses on 5 consecutive days of 12 ng/g body weight BA1, CMA or the well characterised islet β-cell toxin streptozotocin. Pancreases were removed on day 84 and 3 formalin-fixed sections per mouse were immunostained for insulin. The area of insulin-positive islets was measured on digital images using MCID software.

[5] = test system: vATPase; settings: 275 nM; cited from earlier work
[6] = test system: F-ATPase; settings: 275 nM; cited from earlier work

In the case of `CO/C1=C\C(C)=C\[C@@H](C)[C@@H](O)[C@@H](C)C/C(C)=C/C=C/[C@H](OC)[C@@H]([C@@H](C)[C@@H](O)[C@H](C)[C@@]2(O)C[C@@H](O)[C@H](C)[C@@H](C(C)C)O2)OC1=O` [bafilomycin A1], the “blood glucose after 2 hours (OGTT)” value ([1]; 21 days after treatment) is reported as 4.2 ± 0.2 mM, the “blood glucose after 2 hours (OGTT)” value ([1]; seven days after administration) is reported as 4.1 ± 0.4 mM and the fasting glucose levels ([1]; treated mice) is reported as “no change”. The “peak glucose level, 15 minutes after glucose challenge” value ([1]; twenty one days after administration) was 12.5 ± 2.4 mM, the “net fluorescence emitted by islets (median)” value ([2]; 1 day after administration) was 57.9 arbitrary fluorescence units and the “net fluorescence emitted by islets (median)” value ([2]; 7 days after administration) was 59.9 arbitrary fluorescence units. The “total islet area as a percentage of the total area of pancreas” value (“total islet area as a percentage” for short) ([3]; 1 day) was 0.33%, the “islet size vs controls” value ([3]; 1 day treatment group) was “no differences” and the “total islet area as a percentage” value ([3]; 7 day treated mice) was 0.30%. For the same molecule, the “islet size vs controls” value ([3]; 7 day treatment group) was “no differences”, the “total islet area as a percentage” value ([3]; 26 day treated mice) was 0.23% and the “morphology of kidney, liver, testes and brain” value ([3]; 90 day end-point) was “did not reveal any gross morphological changes”. For the same molecule, the “morphology of the islets” value ([3]; 90 day end-point, 2 doses) was “signs of fragmentation or neogenesis”, the “total islet area as a percentage” value ([3]; 90 day treated mice) was 0.16% and the “islet size vs controls” value ([3]; treated 26 days previously) was “significant decrease”. For the same molecule, the mean islet size ([3]; treated 26 days previously) was 4900 μm2, the “islet size vs controls” value ([3]; treated 90 days previously) was “significant decrease” and the mean islet size ([3]; treated 90 days previously, 2 doses) was 2800 μm^2. The “increased level of RBG first detectable after treatment” value ([3]; treated twice a week apart) was 50 days, the “weight of treated vs control groups” value ([3]; treated twice a week apart, followed 90 days) was “did not differ significantly; also recorded: No significant difference” and the “random blood glucose levels (RBG) vs controls” value ([3]; treated twice a week apart, weekly measurement for 90 days) was “small but significant increase”. For the same molecule, the “No. islets per mm^2 pancreas section” value ([4]; day 84, 5 daily doses of 12 ng/g body weight) was 0.85 per mm^2 pancreas section, the “effect on islet number and size” value ([4]; i.p. 12 ng/gram body weight) was “increased the number of small islets” and the Median size ([4]; insulin-positive islets, day 84, 5 daily doses of 12 ng/g body weight) was 3830 μm^2. For the same molecule, the “inhibition of in vitro vATPase activity” value [5] was “sufficient to inhibit” and the “inhibition of F-ATPase activity” value [6] was “no detectable inhibition”.
